{
  "source": "patent US7611693B2",
  "about": "“Mechanism-based targeted pancreatic beta cell imaging and therapy” (Board of Regents, The Univerisity of Texas System, priority 2003, dated 2009)",
  "key": {"pancreatic beta cells": {"test_system": "pancreatic beta cells", "test": "Animal studies: selective imaging of pancreatic beta cells", "type": "in vivo", "text": "(§1) The present disclosure addresses at least in part some deficiencies in the prior art by providing novel DTPA-antidiabetic conjugates useful for imaging beta-cell function. Through binding of radiolabeled conjugates, such as ^99mTc-DTPA-antidiabetic conjugates, for example, to pancreatic beta receptors, detectable by gamma scintigraphy, pancreatic function is monitored. Four DTPA-antidiabetic conjugates have been synthesized and evaluated. […] These agents are labeled with isotopes in order to assess beta cell function in diabetic or insulinoma patients both pre- and post-treatment. These compositions and methods are useful to provide early diagnosis as well as monitoring of response of pancreatic disease during treatment."}, "pancreas [1]": {"test_system": "pancreas", "conditions": "rat, in vivo, iv", "text": "FIG. 47 is a graphical representation comparing pancreas uptake for ^99mTc-DTPA and ^99mTc-DTPA-NGN in breast tumor-bearing rats (n=3/time interval, 20 μCi, IV, p=0.11, 0.05, and 0.01).\nFIG. 48 is a graphical representation of pancreas to muscle count density ratio of ^99mTc-DTPA and ^99mTc-NGN in breast tumor bearing rats (n=3/time interval, μCi/rat, IV, p=0.19, 0.19, and 0.029).\nMale (n=4) New Zealand white rabbits (Raynichols Rabbitry, Lumberton, Tex.) were inoculated with VX-2 cells (rabbit driven mammary squamous cell carcinoma). At day 14 post-inoculation, scintigraphic imaging studies were conducted with ^99mTc-DTPA-NGN (1 mCi, iv). Computer outlined region of interest was used to analyze target-to-nontarget ratios."}, "pancreas [2]": {"test_system": "pancreas", "test": "Scintigraphic imaging in rodents (planar gamma imaging)", "type": "in vivo", "conditions": "normal rat and 13762 tumor-bearing rats, 300 μCi via tail vein, FIGS. 36-44", "experimental": "Scintigraphic imaging in rodents was conducted as follows:\nFemale Fischer 344 rates (150-175 g) (Harlan Sprague-Dawley, Inc., Indianapolis, Ind.) were inoculated subcutaneously in the right leg with breast cancer cells (10^6 cells/rat) from the 13762 NF cell line (known as DMBA-induced breast cancer cell line). Scintigraphic imaging was serially performed on day 14 after inoculation. Planar images were obtained at 0.5, 1 and 2 hours after injection of 300 μCi of ^99mTc-DTPA-NGN or ^99mTc-DTPA-GLP via tail vein. Control groups were given ^99mTc-DTPA. Imaging was conducted with a gamma camera from Digirad (2020tc Imager, San Diego, Calif.) equipped with a low-energy parallel-hole collimator. The field of view is 20 cm×20 cm with an edge of 1.3 cm. The intrinsic spatial resolution is 3 mm and the matrix is 64×64. The system is designed for a planar image with sensitivity of 56 counts/second (cps)/MBq and spatial resolution of 7.6 mm."}, "[3]": {"test": "Animal studies: acute toxicity at the given doses", "type": "in vivo", "text": "as §1"}},
  "data": [
    {"compound": "DTPA-Glipizide", "values": [
      {"measurement": "selective imaging of pancreatic beta cells", "setting": "pancreatic beta cells", "value": "able to selectively image pancreatic beta cells"}
    ]},
    {"compound": "CC(C)[C@H]1CC[C@H](C(=O)N[C@H](Cc2ccccc2)C(=O)NCCNC(=O)CN(CCN(CCN(CC(=O)O)CC(=O)NCCNC(=O)[C@@H](Cc2ccccc2)NC(=O)[C@H]2CC[C@H](C(C)C)CC2)CC(=O)O)CC(=O)O)CC1", "note": "[^99mTc-DTPA-nateglinide, metal not drawn]", "values": [
      {"measurement": "pancreas uptake compared with control groups", "setting": "pancreas [1]", "value": "pancreas uptake was higher than control groups"}
    ]},
    {"compound": "^99mTc-DTPA-glipizide", "values": [
      {"measurement": "visualization of pancreas by planar scintigraphy", "setting": "pancreas [2]", "value": "pancreas could be visualized"}
    ]},
    {"compound": "CC(C)[C@H]1CC[C@H](C(=O)N[C@H](Cc2ccccc2)C(=O)NCCNC(=O)CN(CCN(CCN(CC(=O)O)CC(=O)NCCNC(=O)[C@@H](Cc2ccccc2)NC(=O)[C@H]2CC[C@H](C(C)C)CC2)CC(=O)O)CC(=O)O)CC1", "note": "[DTPA-nateglinide, DTPA-Nateglinide]", "values": [
      {"measurement": "acute toxicity", "setting": "[3]", "value": "no acute toxicity"}
    ]}
  ]
}
